This experiment can be described thus: Cytotoxicity against human NCI60 cells. The class given is functional.

In general, GI50 refers to the concentration giving 50% growth inhibition. The TGI is the concentration at which net growth stops. Higher therefore signals less potent growth arrest.

In turn, `CC(=O)O[C@H]1C(=O)[C@@]2(C)[C@H]([C@H](OC(=O)c3ccccc3)[C@]3(O)C[C@H](OC(=O)[C@H](O)[C@@H](NC(=O)[C@@](C)(Cl)[C@H](C)Cl)c4ccccc4)C(C)=C1C3(C)C)[C@]1(OC(C)=O)CO[C@@H]1C[C@@H]2O` gave a GI50 of 0.21 µM, an LC50 (50% lethal concentration) of 32 µM and a TGI of 6.3 µM.
In turn, `CC(=O)O[C@H]1C(=O)[C@@]2(C)[C@H]([C@H](OC(=O)c3ccccc3)[C@]3(O)C[C@H](OC(=O)[C@H](O)[C@@H](NC(=O)[C@](C)(Cl)[C@@H](C)Cl)c4ccccc4)C(C)=C1C3(C)C)[C@]1(OC(C)=O)CO[C@@H]1C[C@@H]2O` showed a GI50 of 0.14 µM, an LC50 (50% lethal concentration) of 29 µM and a TGI of 4.2 µM.
With `CC(=O)O[C@H]1C(=O)[C@@]2(C)[C@H]([C@H](OC(=O)c3ccccc3)[C@]3(O)C[C@H](OC(=O)[C@H](O)[C@@H](NC(=O)c4ccccc4)c4ccccc4)C(C)=C1C3(C)C)[C@]1(OC(C)=O)CO[C@@H]1C[C@@H]2O` [PACLITAXEL], the GI50 stood at 0.00065 µM and the TGI was found to be 0.15 µM.

The values are drawn from ChEMBL document CHEMBL1158848, “Synthesis and separation of potential anticancer active dihalocephalomannine diastereomers from extracts of Taxus yunnanensis” (1998).
